From patent US20050180962A1, “Inactivated probiotic bacteria and methods of use thereof” (priority 2003, published 2005)

Tests used:
DSS-induced colitis = DSS-induced colitis (DSS 3.5% in drinking water, 7 days); format: in vivo, Balb/c mice; parameters: key to Histological Score: summed histological score, 0 (minimum) to 20 (maximum); settings: for Disease Activity Score / Histological Score / MPO: mean±SEM
Protocol: To induce dextran sodium sulfate (DSS) colitis, DSS (Sigma) was given in the drinking water for 7 days. Preliminary studies were performed to identify the concentration of DSS in the drinking water required to elicit a similar disease activity score in different mouse strains.
(§1) Mice were sacrificed 7 days after the induction of colitis. All studies were performed in a blind fashion.
Probiotics, including live probiotics, irradiated probiotics, and heat killed probiotics, were intragastrically (i.g.) given starting 10 days prior to the induction of colitis and for 7 days thereafter. In preliminary studies, mice were treated daily by i.g. administration of 0.28×10^8, 2.8×10^8 or 28×10^8 CFU of irradiated probiotics per mouse per day.
(§2) In another experiment 50 μg of these DNA preparations were administered i.g. or intrarectally (i.r.) 2 hrs prior to DSS administration. In the IL-10 deficient colitis model, ten-week old mice were treated s.c. once a week with the various DNA preparations (see above), and this treatment continued for 4 weeks as described (Rachmilewitz et al. (2002) supra). The disease-activity score, histological score, and colonic myeloperoxidase (MPO) activity were determined as described (Rachmilewitz et al. (2002) supra).
A mouse model of colitis was used and assessed, as described. Rachmilewitz et al. (2002) Gastroenterology 122:1428-1441. Colitis was induced by adding dextran sodium sulfate (DSS, Sigma), 3.5% to the drinking water, and allowing them to drink ad libitum. Seven days after induction of colitis, mice were weighed and inspected for diarrhea and rectal bleeding. The mice were sacrificed, and the entire colon was dissected and its length measured and weighed. Scores were again defined as follows: Changes in body weight: No loss—0; 5 to 10%—1; […], —2; 15 to 20%, —3; >20%—4. Hemoccult: No blood, —0; positive, —2; gross blood, —4. Mucosal samples were processed for determination of MPO activity according to: Bradley (1982) J Invest Dermatol 78:206-9.
When indicated, sections from the distal colon were fixed in buffered formalin and routine 5 μm sections were prepared and stained with hematoxylin and eosin. Stained sections were examined blindly and scored. The scoring system took into account the depth of the ulcer, the extent of the ulcer, presence of inflammation, extent of inflammation, and location of fibrosis. Minimal score was 0 and maximal score was 20. Scoring was as follows for depth of the ulcer: 0=no ulcer; 1—mucosal involvement; 2—mucosal+submucosal involvement; 3=penetration of muscularis propria; 4=full thickness involvement. Scoring was as follows for extent of the ulcer: 0=no ulcer; 1=punctate; 2=minimal; 3=moderate; 4=widespread. Scoring was as follows for presence of inflammation: 0=none; 1=minimal; 2=mild; 3=moderate; 4=severe. Scoring was as follows for extent of inflammation: 0=none; 1=mucosal; 2=mucosal+submucosal involvement; 3=mucosal+submucosal+muscle penetration; 4=full thickness involvement. Scoring was as follows for location of fibrosis: 0=none; 1=mucosa only; 2=mucosa+submucosa; 3=including muscle layer; 4=full thickness fibrosis.
Fifty mg colonic mucosal scrapings were homogenized with a polytron (Kinematica GmbH, Krienz-Luzem, Switzerland) in ice-cold hexadecyltrimethyl ammonium bromide (0.5%) in 50 mM phosphate buffer, pH 6.0. The homogenate was sonicated for 10 seconds, freeze-thawed three times, and centrifuged for 15 minutes. An aliquot of the supernatant was taken for determination of myeloperoxidase (MPO) enzyme activity, as described (Rachmilewitz et al. (2002) supra).

TNBS-induced colitis = assay: TNBS-induced colitis; format: in vivo, Balb/c mice; settings: s.c. once 2 hours before TNBS; day 7; mean±SEM
Protocol: Trinitrobenzenesulfonic acid (TNBS) colitis was induced in 8 week old, Balb/c mice by rectal instillation of 0.5 mg/mouse of 2,4,6-trinitrobenzene sulfonic acid (Sigma) dissolved in 0.1 ml of 50% ethanol as described. Rachmilewitz et al. (2002), supra.
as §1
as §2, with “Various DNA preparations (ISS-ODN and control-ODN, 30 μg/mouse; probiotic DNA, methylated probiotic DNA, E. coli DNA and calf thymus DNA, 50 μg/mouse) and DNase treated probiotics (i.e., the amount of microorganisms that yielded 50 μg of probiotic DNA) were s.c. injected 2 hrs prior to the administration of DSS or TNBS. In another” for “In another”

[1] = tested on: spontaneous colitis in IL-10 KO mice; assay: Spontaneous colitis in IL-10 KO mice; format: in vivo, IL-10 KO mice (B6); settings: s.c. once a week for 4 weeks; mean±SEM
Protocol: as §2, with “Various DNA preparations (ISS-ODN and control-ODN, 30 μg/mouse; probiotic DNA, methylated probiotic DNA, E. coli DNA and calf thymus DNA, 50 μg/mouse) and DNase treated probiotics (i.e., the amount of microorganisms that yielded 50 μg of probiotic DNA) were s.c. injected 2 hrs prior to the administration of DSS or TNBS. In another” for “In another”

TLR9 = assay: IL-12 (p40) and IL-6 secretion by macrophages (ELISA); format: cell-based, mice; settings: TLR9 null macrophages, 24 hours post-stimulation
[2] = tested on: chronic DSS-induced colitis; assay: Chronic DSS-induced colitis (treatment model); format: in vivo, Balb/c mice
Protocol: To evaluate whether probiotics are effective not only in the prevention but also in the treatment of colitis the following experiment was performed: Mice were treated for 7 days with DSS 3.5% added to the drinking water. From the 8th day until sacrifice on day 15, the concentration of DSS in the drinking water was reduced to 1.75%. During the 15 days of the experiment, 2 groups of mice were treated daily i.g. with viable or with irradiated probiotics 2.8×10^8 CFU. A third group was treated s.c. on day 8 with ISS-ODN (10 μg) and a fourth control group was treated i.g. daily with 0.2 ml of saline. […] The colon was isolated, weighed, sections were taken for histology and mucosal samples were obtained for MPO determination.

commensal flora = assay: Effect of chloroquine on stool flora of mice; format: in vivo; settings: 10 mg/kg s.c. daily for 7 days versus saline
Protocol: Control group was treated s.c. daily with 0.2 ml of saline. After 7 days, stool samples were collected, homogenized and cultured on blood, Maconkey, phenylethanol, chocolate, M.R.S., and anaerobic agars.

[3] = i.g., 50 μg once 2 hours before DSS
[4] = s.c. once 2 hours before DSS, ODNs 30 μg/mouse, DNAs 50 μg/mouse
[5] = i.r., 50 μg once 2 hours before DSS
[6] = DSS 3.5% 7 days then 1.75% 7 days, probiotics 2.8×10^8 CFU i.g. daily, ISS-ODN 10 μg s.c. day 8, day 15, mean±SEM

Compound | Disease Activity Score (DSS-induced colitis; [3]) | Histological Score (DSS-induced colitis; [3]) | MPO (DSS-induced colitis; [3]) | Disease Activity Score (DSS-induced colitis; [4]) | Histological Score (DSS-induced colitis; [4]) | MPO (DSS-induced colitis; [4]) | Disease Activity Score (TNBS-induced colitis) | Histological Score (TNBS-induced colitis) | MPO (TNBS-induced colitis) | also measured
5′-TGACTGTG AAGGTTAGAGATGA-3 (DNA TGACTGTGAAGGTTAGAGATGA; DNA, all phosphorothioate, methylation of C not given here) [Control-ODN] | 6.7 ± 0.8 | 5.7 ± 0.3 | 1.90 ± 0.20 U/gr | 3.8 ± 0.7 | 8.0 ± 0.9 | 4.2 ± 0.8 U/gr | 1.3 ± 0.2 | 4.8 ± 1.8 | 2.00 ± 0.30 U/gr | –
5′-TGACTGTGAACGTTCGAGATGA-3′ [ISS-ODN] | 3.6 ± 0.7 | 2.8 ± 0.6 | 1.09 ± 0.10 U/gr | 0.4 ± 0.4 | 0 ± 0 | 0.9 ± 0.1 U/gr | 0.4 ± 0.3 | 0 ± 0 | 0.8 ± 0.10 U/gr | Histological Score [1]: 1.8 ± 1.2; MPO [1]: 0.8 ± 0.10 U/gr; outcome of colitis (DSS-induced colitis; i.r. administration, once 2 hrs before DSS): had no effect; Disease Activity Score (DSS-induced colitis; [5]): 6.3 ± 0.7; Histological Score (DSS-induced colitis; [5]): 5.9 ± 0.7; MPO (DSS-induced colitis; [5]): 1.90 ± 0.30 U/gr; severity of DSS-induced colitis (DSS-induced colitis; intragastric or s.c. administration, once 2 hrs before DSS): inhibited the severity; secretion of p40 or IL-6 (TLR9): did not induce; Disease Activity Score [2, 6]: 1.1 ± 0.4; Histological Score [2, 6]: 6.9 ± 0.8; MPO [2, 6]: 1.25 ± 0.19 U/gr; severity of chronic DSS induced colitis ([2]; given with or after induction of colitis): equally attenuate the severity
CCN(CC)CCCC(C)Nc1ccnc2cc(Cl)ccc12 (stereo not drawn) [Chloroquine, chloroquine] | – | – | – | – | – | – | – | – | – | identity or quantity of bacterial strains grown from the stool (commensal flora): No significant differences; MPO (DSS-induced colitis; colonic MPO, probiotics 2.8×10^8 CFU i.g. daily, chloroquine 10 mg/kg s.c. daily, DSS 3.5% 7 days): 1.54 ± 0.16 U/gr; Histological Score (DSS-induced colitis; probiotics 2.8×10^8 CFU i.g. daily, chloroquine 10 mg/kg s.c. daily, DSS 3.5% 7 days): 8.0 ± 0.8
